US10131657B2, “Bromodomain inhibitors” (AbbVie Inc., priority 2013, dated 2018)

What was measured:
BRD4 (BDII_E352-M457) = biological target: T1, BRD4 (BDII_E352-M457) (Homo sapiens, UniProt O60885); assay: TR-FRET bromodomain binding assay, BRD4 second bromodomain; conditions: His-tagged BRD4 BD2, 30 nM Alexa647 probe; Ki calculated from IC50, probe Kd and probe concentration
T1 construct: made in house
Description: (§1) A time-resolved fluorescence resonance energy transfer (TR-FRET) assay was used to determine the affinities of compounds of the Examples listed in Table 1 for each bromodomain of BRD4. His-tagged first (BD1: amino acids K57-E168) and second (BD2: amino acids E352-E168) bromodomains of BRD4 were expressed and purified. An Alexa647-labeled BET-inhibitor was used as the fluorescent probe in the assay.
(§2) Compound dilution series were prepared in DMSO via a 3-fold serial dilution from 2.5 mM to 42 nM. Compounds were then diluted 6:100 in assay buffer (20 mM Sodium Phosphate, pH 6.0, 50 mM NaCl, 1 mM Ethylenediaminetetraacetic acid disodium salt dihydrate, 0.01% Triton X-100, 1 mM DL-Dithiothreitol) to yield 3× working solutions. Six microliters (μL) of the working solution was then transferred to white, low-volume assay plates (Costar #3673). A 1.5× assay mixture containing His-tagged bromodomain, Europium-conjugated anti-His antibody (Invitrogen PV5596) and the Alexa-647-conjugated probe molecule was also prepared. Twelve μL of this solution were added to the assay plate to reach a final volume of 18 μL. The final concentration of 1× assay buffer contains 2% DMSO, 50 μM-0.85 nM compound, 8 nM His-tagged bromodomain, 1 nM Europium-conjugated anti-His-tag antibody and 100 nM or 30 nM probe (for BDI or BDII, respectively). After a one-hour incubation at room temperature, TR-FRET ratios were determined using an Envision multilabel plate reader (Ex 340, Em […]).
(§3) TR-FRET data were normalized to the means of 24 no-compound controls (“high”) and 8 controls containing 1 μM un-labeled probe (“low”). […] Inhibition constants (Ki) were calculated from the IC50s, probe Kd and probe concentration. […] The minimum significant ratio was determined to evaluate assay reproducibility (Eastwood et al., (2006) J Biomol Screen, 11: 253-261). The MSR was determined to be 2.03 for BDI and 1.93 for BDII, and a moving MSR (last six run MSR overtime) for both BDI and BDII was typically <3.

BRD4 (BDI_K57-E168) = biological target: T2, BRD4 (BDI_K57-E168) (Homo sapiens, UniProt O60885); assay: TR-FRET bromodomain binding assay, BRD4 first bromodomain; conditions: His-tagged BRD4 BD1, 100 nM Alexa647 probe; Ki calculated from IC50, probe Kd and probe concentration
T2 construct: BD1: amino acids K57-E168; made in house
Description: as §1, §2, §3

[1] = test system: breast cancer cell line MX-1; assay: MX-1 cell line proliferation assay, Method A; type: cell-based; conditions: Homo sapiens, MX1; MX-1 cells, 96-well, 72 hours, Cell Titer Glo; read-out: Cellular proliferation: EC50 Method A
Outline: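 MX-1 breast cancer cells (5000/well) were attached overnight in RPMI 1640 with 10% FBS, then exposed for 3 days to compound at 0.0001–3 μM final. Cell Titer Glo luminescence was normalized to DMSO controls, and EC50s were obtained by sigmoidal fitting.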

[2] = test system: breast cancer cell line MX-1; assay: MX-1 cell line proliferation assay, Method B; type: cell-based; conditions: Homo sapiens, MX1; MX-1 cells, 384-well, 72 hours, Cell Titer Glo; read-out: Cellular proliferation: EC50 Method B
Description: The impact of compounds of the Examples on cancer cell proliferation was determined using the breast cancer cell line MX-1 (ATCC) in a 3-day proliferation assay and the data are reported in Table 1.
MX-1 cells were maintained in RPMI 1640 medium (Sigma) supplemented with 10% FBS at 37° C. and an atmosphere of 5% CO2. For compound testing, MX-1 cells were plated in 384-well white with clear, flat bottom plates at a density of 750 cells/well in 25 μL of culture media and incubated at 370 overnight to allow cell adhesion and spreading. Ten point compound dilution series were prepared in DMSO via a 3-fold serial dilution from either 10 μM or 1 μM stock and added directly to the appropriate wells of the MX-1 cell plate by an ECHO liquid handler (Labcyte). The final compound concentrations in the wells were 10, 3.25, 1, 0.25, 0.124, 0.040, 0.0124, 0.0031, 0.0015 and 0.0005 μM or 1, 0.33, 0.1, 0.025, 0.0124, 0.004, 0.0012, 0.0003, 0.00015, 0.00005 μM, depending on the concentration of the compound stock solution.
Luminescence readings from the Cell Titer Glo assay were normalized to the DMSO treated cells and analyzed using Accelrys Assay Explorer 3.3 software with sigmoidal curve fitting to obtain EC50s. The minimum significant ratio (MSR) was determined to evaluate assay reproducibility (Eastwood et al., (2006) J Biomol Screen, 11: 253-261). The overall MSR was determined to be 3.3 and a moving MSR (last six run MSR overtime) has averaged 2.1.

Row | SMILES | Ki (BRD4 (BDII_E352-M457)) [nM] | Ki (BRD4 (BDI_K57-E168)) [nM] | EC50 [1] [nM] | EC50 [2] [nM]
1 | CCS(=O)(=O)c1ccc(OCC2CC2(F)F)c(-c2cn(C)c(=O)c3[nH]c(CN4CCN(c5ncccn5)CC4)cc23)c1 (stereo not drawn) [Example 19, 4-{2-[(2,2-difluorocyclopropyl)methoxy]-5-(ethylsulfonyl)phenyl}-6-methyl-2-{[4-(pyrimidin-2-yl)piperazin-1-yl]methyl}-1,6-dihydro-7H-pyrrolo[2,3-c]pyridin-7-one] | 62 | 6.1 | – | –
2 | COc1ccc(S(=O)(=O)Nc2cccc(Oc3ccc(S(C)(=O)=O)cc3-c3cn(C)c(=O)c4[nH]ccc34)c2)cc1OC [Example 53, 3,4-dimethoxy-N-{3-[2-(6-methyl-7-oxo-6,7-dihydro-1H-pyrrolo[2,3-c]pyridin-4-yl)-4-(methylsulfonyl)phenoxy]phenyl}benzenesulfonamide] | 1 | 3.4 | 144 | –
3 | Cn1cc(-c2cc(S(C)(=O)=O)ccc2NC2CCN(S(=O)(=O)/C=C/c3ccccc3)CC2)c2cc[nH]c2c1=O [Example 102, 6-methyl-4-{5-(methylsulfonyl)-2-[(1-{[(E)-2-phenylethenyl]sulfonyl}piperidin-4-yl)amino]phenyl}-1,6-dihydro-7H-pyrrolo[2,3-c]pyridin-7-one] | 6.8 | 6 | 67.3 | –
4 | CCNC(=O)c1cc2c(-c3ccc(C(=O)N(CCCN4CCOCC4)Cc4ccccc4)cc3Oc3c(C)cccc3C)cn(C)c(=O)c2[nH]1 [Example 161, 4-[4-{benzyl[3-(morpholin-4-yl)propyl]carbamoyl}-2-(2,6-dimethylphenoxy)phenyl]-N-ethyl-6-methyl-7-oxo-6,7-dihydro-1H-pyrrolo[2,3-c]pyridine-2-carboxamide] | – | – | – | 1950
